Tests used:
PAICS = PAICS (Homo sapiens, UniProt P22234)
oncogene myc = details: Western Blot, FIG. 4
[1] = system: lung cancer cell strain A549; assay: cells; details: Homo sapiens, A549, 48 h
[2] = system: lung cancer cell strain H1299; assay: cells; details: Homo sapiens, NCI-H1299, 48 h
[3] = system: breast cancer cell strain MD468; assay: cells; details: 48 h
[4] = system: breast cancer cell strain MD231; assay: cells; details: 48 h

PAICS, sequence (P22234 whole entry): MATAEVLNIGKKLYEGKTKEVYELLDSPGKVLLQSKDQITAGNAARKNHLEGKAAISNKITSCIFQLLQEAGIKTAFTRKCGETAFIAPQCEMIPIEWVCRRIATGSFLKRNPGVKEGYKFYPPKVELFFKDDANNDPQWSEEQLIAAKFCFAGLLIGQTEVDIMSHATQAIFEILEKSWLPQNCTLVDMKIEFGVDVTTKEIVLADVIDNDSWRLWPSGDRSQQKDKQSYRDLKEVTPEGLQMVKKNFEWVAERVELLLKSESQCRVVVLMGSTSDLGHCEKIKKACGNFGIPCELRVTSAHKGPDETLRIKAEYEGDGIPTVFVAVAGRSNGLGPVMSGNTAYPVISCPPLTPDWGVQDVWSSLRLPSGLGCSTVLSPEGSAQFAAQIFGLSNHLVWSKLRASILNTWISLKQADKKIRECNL

inhibition of the accumulation of SAICAR (PAICS): up to 71.1%
IC50 [1]: 117 µM
IC50 [2]: 25.2 µM
IC50 [3]: 38 µM
IC50 [4]: 3.55 µM
Structure (SMILES): NCCCNCCCCNCCCN [spermine]
expression of oncogene myc (oncogene myc): significantly down-regulated
